{"source": "paper PMC11729425", "about": "(ACS Pharmacology & Translational Science, 2024)", "key": {"[1]": {"test": "10-day food admix tolerability in mice (body weight, food intake, plasma AST, ALT, CK)", "type": "in vivo", "conditions": "10 days", "method": "(A) Schematic representation of the de novo sphingolipid synthesis pathway. (B) Chemical structures of myriocin (MYR) and ALT-007. (C) Heatmap analysis comparing the effects of treatments with the indicated concentrations of MYR and ALT-007 on lipid species in C2C12 cells. N = 3 per group. Data are shown as log2 fold change. (D) Body weight curves of mice treated with ALT-007 or vehicle (4 mg/kg/d for 10 days, in the food). (E) Mean food consumption measurement throughout the treatment. (F) Plasma levels of aspartate transaminase (AST), (G) alanine transaminase (ALT) and (H) creatine kinase (CK) after 10 days of treatment with ALT-007 at 4 mg/kg/day. (I) Ceramide levels measured in the gastrocnemius muscle after 10 days of treatment. N = 8 per group. Quantitative data are expressed as median with min to max values. *P < 0.05, **P < 0.01, ***P < 0.001. ANOVA test was used for multiple comparison, and the Mann–Whitney U test when comparing 2 groups. All tests were 2 sided. Abbreviation: SPT, serine palmitoyltransferase; CK, creatine kinase; MYR, Myriocin; ns, nonsignificant.\nPlasma parameters were assessed using samples diluted two times (at a 1:1 ratio of plasma to diluent) with the DimensionXpand Plus system from Siemens Healthcare Diagnostics. The biochemical tests were conducted in accordance with the manufacturer’s instructions for each specific parameter. These parameters included transaminase AST (DF41A), transaminase ALT (DF143) and creatine kinase (11097640), all provided by Siemens Healthcare."}, "[2]": {"tested_on": "Aged C57BL/6J mice", "test": "Grip strength", "type": "in vivo, C57BL/6JRj mice", "conditions": "1 mg/kg in the food, week 8, 4 limbs, normalized to BW", "method": "Grip strength was evaluated using a grip strength test. Each mouse’s grip strength was measured using a pulldown grid assembly connected to a grip strength meter (Columbus Instruments). The mouse was pulled along a straight line parallel to the grip to determine peak force. The experiment was conducted three times, and the highest recorded value was considered for the analysis."}, "[3]": {"tested_on": "Aged C57BL/6J mice", "test": "VO2max test", "type": "in vivo, C57BL/6JRj mice", "conditions": "1 mg/kg in the food, week 11", "method": "VO2max in mice was measured with a calorimetric treadmill (Columbus Instruments) with an incremental speed protocol as previously described.[33]"}, "[4]": {"tested_on": "Aged C57BL/6J mice", "test": "Metabolic cages (CLAMS): energy expenditure and activity", "type": "in vivo, C57BL/6JRj mice", "conditions": "1 mg/kg in the food, week 19, CLAMS", "method": "Energy expenditure and activity during day and night were measured using the CLAMS monitoring system (Columbus instruments). Mice were housed in metabolic cages for 48 h."}, "[5]": {"tested_on": "N2 wild-type C. elegans", "test": "Lifespan measurements in C. elegans", "type": "in vivo, Caenorhabditis elegans", "method": "Lifespan assays were conducted at 20 °C unless otherwise noted. Synchronous populations were generated by hypochlorite treatment of gravid adults to obtain tightly synchronized embryos, which were then allowed to develop into adulthood under defined conditions. 20–25 worms were placed on NGM plates containing 5-FU seeded with E. coli OP50 bacteria. ALT-007 at a final concentration of 5 μM was added to the top of the plates diluted in DMSO, and DMSO was used at the same concentration as a control. Each condition included at least 170 animals per experiment.\nThe day of egg collection was designated as t = 0. Animals were transferred to fresh plates every 3 days and examined daily for touch-provoked movement and pharyngeal pumping, until death. Worms that died due to internal hatching of eggs, extruded gonads, or desiccation from crawling off the plate were censored accordingly. Each survival assay was repeated at least twice, and figures show representative results.\nSurvival curves were generated using the Kaplan–Meier product-limit method. The log-rank (Mantel–Cox) test was used to assess differences in survival and calculate P values. Statistical analyses and lifespan values were determined using GraphPad Prism 10 software. Complete lifespan statistics are presented in Supporting Information Table 1."}, "[6]": {"tested_on": "GMC101 worms", "test": "Paralysis scoring in amyloid beta expressing GMC101 worms", "type": "in vivo, Caenorhabditis elegans", "conditions": "GMC101, 1 μM, day 1 of adulthood", "method": "At least 100 worms per condition were manually scored for paralysis after poking. Results are representative of data obtained from at least two independent experiments. ALT-007 was administered at 1 μM and DMSO was used as a control. GMC101 animals were used and scoring was performed at day 1 of adulthood."}, "[7]": {"tested_on": "GMC101 and CL2120 amyloid beta expressing animals", "test": "Amyloid beta aggregation in C. elegans (Western blot)", "type": "in vivo, Caenorhabditis elegans", "method": "Figure 5 ALT-007 increases lifespan, improves healthspan and reduces protein aggregation in C. elegans. (A) Median and maximal lifespan of […]. elegans animals treated with ALT-007 or vehicle (5 μM). N = 2 biological replicates with at least 170 animals per group. (B) Paralysis and movement analysis of amyloid beta (Ab)-expressing animals treated with ALT-007 or vehicle (1 μM) at day 1 of adulthood. N = 2 biological replicates with at least 50 animals per group. (C) Amyloid aggregation upon ALT-007 treatment and DMSO as a control in GMC101 and CL2120 amyloid beta expressing animals and their respective controls. N = 3 biological replicates with at least 100 animals per group. (D) Quantification of amyloid beta (Ab) levels upon ALT-007 treatment. The log-rank (Mantel-Cox) test was used to evaluate differences between survival curves as indicated in Supplementary Table 1. two-tailed t-test was performed for two-group analysis and one-way analysis of variance (ANOVA) for three-group analysis. Sample preparation: Synchronized animal populations were collected and washed in M9 buffer. […] Protein samples were analyzed by Tricine-SDS-polyacrylamide gel electrophoresis (SDS-PAGE) and transferred to nitrocellulose membrane. Proteins were detected using the following antibodies under the manufacturer's conditions: antiβ-actin (Sigma) and antiAmyloid-beta, 1-16 (6E10) (BioLegend)."}, "[8]": {"conditions": "4 mg/kg/d in the food, vs DMSO control mice"}}}
{"smiles": "COc1cc(C(=O)N2CC[C@H](NC(=O)c3ccccc3OC(F)(F)F)c3c2cnn3C(C)C)cnc1OC", "note": "[ALT-007]", "values": [{"measurement": "body weight", "setting": "[1]; [8]", "value": "no differences"}, {"measurement": "food intake", "setting": "[1]; [8]", "value": "no differences"}, {"measurement": "hepatic toxicity by plasma transaminase (AST, ALT) levels", "setting": "[1]; 4 mg/kg/day", "value": "neither hepatic nor muscle toxicity was identified"}, {"measurement": "muscle toxicity by plasma creatine kinase (CK) levels", "setting": "[1]; 4 mg/kg/day", "value": "neither hepatic nor muscle toxicity was identified"}, {"measurement": "grip strength", "setting": "[2]", "value": "increased compared to aged control mice"}, {"measurement": "VO2max", "setting": "[3]", "value": "significantly higher"}, {"measurement": "energy expenditure (kCal/h) at night", "setting": "[4]", "value": "significant increase"}, {"measurement": "global physical activity", "setting": "[4]; vs aged control", "value": "completely restored the decline in global physical activity"}, {"measurement": "toxicity for animal development", "setting": "[5]; C. elegans, administration at the embryo stage", "value": "nontoxic for animal development"}, {"measurement": "maximal lifespan", "setting": "[5]; N2 wild-type, 5 μM, 20 °C", "value": "significantly increased"}, {"measurement": "median lifespan", "setting": "[5]; N2 wild-type, 5 μM, 20 °C", "value": "significantly increased"}, {"measurement": "paralysis induced by amyloid beta aggregation", "setting": "[6]", "value": "reduce paralysis"}, {"measurement": "amyloid beta aggregation", "setting": "[7]; CL2120 strain (CL2122 as a control)", "value": "reduce aggregation"}, {"measurement": "amyloid beta aggregates", "setting": "[7]; GMC101 worms", "value": "reducing amyloid beta aggregates"}]}
